Assay results from US10556888B2, “Pyrazole compounds or salts thereof, preparation methods therefor, herbicidal compositions and use thereof” (QINGDAO KINGAGROOT CHEMICAL COMPOUNDS CO., LTD, priority 2015, dated 2020).

How the values were obtained:
[1] = system: main crop (wheat, corn, rice, soybean, cotton, oilseed, millet and sorghum); test: Post-emergence test experiment, main crops (Table 2); format: in vivo; parameters: key: Level 10: completely dead; Level 9: above 90% growth inhibition rate; Level 8: above 80% growth inhibition rate; Level 7: above 70% growth inhibition rate; Level 6: above 60% growth inhibition rate; Level 5: above 50% growth inhibition rate; Level 4: above 30% growth inhibition rate; Level 3: above 20% growth inhibition rate; Level 2: above 10% growth inhibition rate; Level 1: above 1-10% growth inhibition rate; Level 0: no effect; conditions: 30 g/ha, 3 weeks after spraying, greenhouse
Outline: (§1)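 Weed and crop seeds (wheat, corn, rice, soybean, cotton, oilseed, millet, sorghum) grown in soil in greenhouse; sprayed at 2-3 leaf stage, 2-3 weeks after sowing, with compound in acetone/Tween 80/water. Effects assessed after 3 weeks further greenhouse culture.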

[2] = system: Monocotyledonous and dicotyledonous weed; test: Post-emergence test experiment, weed control effect (Table 2); format: in vivo; parameters: key to weed control effect, Setaria viridis (level) / weed control effect, Rorippa indica (level) / weed control effect, Abutilon theophrasti (level) / weed control effect, Echinochloa crus-galli (level) / weed control effect, Digitaria sanguinalis (level): Level 10: completely dead; Level 9: above 90% growth inhibition rate; Level 8: above 80% growth inhibition rate; Level 7: above 70% growth inhibition rate; Level 6: above 60% growth inhibition rate; Level 5: above 50% growth inhibition rate; Level 4: above 30% growth inhibition rate; Level 3: above 20% growth inhibition rate; Level 2: above 10% growth inhibition rate; Level 1: above 1-10% growth inhibition rate; Level 0: no effect; conditions: 30 g/ha, 3 weeks after spraying, greenhouse
Outline: as §1

Compound	effect on crop, corn (level) [1]	effect on crop, rice (level) [1]	effect on crop, wheat (level) [1]	weed control effect, Abutilon theophrasti (level) [2]	weed control effect, Bidens pilosa (level) [2]	weed control effect, Digitaria sanguinalis (level) [2]	weed control effect, Echinochloa crus-galli (level) [2]	weed control effect, Rorippa indica (level) [2]	weed control effect, Setaria viridis (level) [2]
CCOc1c(C(=O)Oc2c(C(=O)c3ccc(S(C)(=O)=O)c(COCC(F)F)c3Cl)cnn2C)cnn1C [Compound 57]	0	3 (Level 3: above 20% growth inhibition rate)	0	7 (Level 7: above 70% growth inhibition rate)	7 (Level 7: above 70% growth inhibition rate)	7 (Level 7: above 70% growth inhibition rate)	10	10	9 (Level 9: above 90% growth inhibition rate)
C#CCOCc1c(S(C)(=O)=O)ccc(C(=O)c2cnn(C)c2OC(=O)c2cnn(C)c2OCC)c1Cl [Compound 58]	0	3 (Level 3: above 20% growth inhibition rate)	0	7 (Level 7: above 70% growth inhibition rate)	7 (Level 7: above 70% growth inhibition rate)	7 (Level 7: above 70% growth inhibition rate)	10	10	9 (Level 9: above 90% growth inhibition rate)
CCOCCOCc1c(S(C)(=O)=O)ccc(C(=O)c2cnn(C)c2OC(=O)c2cnn(C)c2OCC)c1Cl [Compound 59]	0	3 (Level 3: above 20% growth inhibition rate)	0	7 (Level 7: above 70% growth inhibition rate)	7 (Level 7: above 70% growth inhibition rate)	7 (Level 7: above 70% growth inhibition rate)	8 (Level 8: above 80% growth inhibition rate)	10	6 (Level 6: above 60% growth inhibition rate)
C#CCOCc1c(S(C)(=O)=O)ccc(C(=O)c2cnn(C)c2OC(=O)c2cnn(C)c2)c1Cl [Compound 61]	0	3 (Level 3: above 20% growth inhibition rate)	0	7 (Level 7: above 70% growth inhibition rate)	7 (Level 7: above 70% growth inhibition rate)	7 (Level 7: above 70% growth inhibition rate)	10	10	5 (Level 5: above 50% growth inhibition rate)
COCCCOCc1c(S(C)(=O)=O)ccc(C(=O)c2cnn(C)c2OC(=O)c2cnn(C)c2)c1Cl [Compound 62]	0	3 (Level 3: above 20% growth inhibition rate)	0	7 (Level 7: above 70% growth inhibition rate)	7 (Level 7: above 70% growth inhibition rate)	7 (Level 7: above 70% growth inhibition rate)	10	10	7 (Level 7: above 70% growth inhibition rate)
Cc1nn(C)c(OC(=O)c2cnn(C)c2)c1C(=O)c1ccc(S(C)(=O)=O)c(COCC(F)(F)F)c1Cl [Compound 63]	1 (Level 1: above 1-10% growth inhibition rate)	6 (Level 6: above 60% growth inhibition rate)	0	7 (Level 7: above 70% growth inhibition rate)	7 (Level 7: above 70% growth inhibition rate)	10	10	10	10
Cc1nn(C)c(OC(=O)c2cnn(C)c2)c1C(=O)c1ccc(S(C)(=O)=O)c(COCC(F)F)c1Cl [Compound 64]	2 (Level 2: above 10% growth inhibition rate)	3 (Level 3: above 20% growth inhibition rate)	0	5 (Level 5: above 50% growth inhibition rate)	5 (Level 5: above 50% growth inhibition rate)	9 (Level 9: above 90% growth inhibition rate)	10	10	10
Cc1nn(C)c(OC(=O)c2cnn(C)c2)c1C(=O)c1ccc(S(C)(=O)=O)c(COCC(F)(F)C(F)F)c1Cl [Compound 65]	0	3 (Level 3: above 20% growth inhibition rate)	0	6 (Level 6: above 60% growth inhibition rate)	7 (Level 7: above 70% growth inhibition rate)	7 (Level 7: above 70% growth inhibition rate)	10	10	6 (Level 6: above 60% growth inhibition rate)
Cn1cc(C(=O)Oc2c(C(=O)c3ccc(S(C)(=O)=O)c(COCC(F)(F)F)c3Cl)cnn2C)cn1 [Compound 67]	1 (Level 1: above 1-10% growth inhibition rate)	3 (Level 3: above 20% growth inhibition rate)	0	7 (Level 7: above 70% growth inhibition rate)	7 (Level 7: above 70% growth inhibition rate)	7 (Level 7: above 70% growth inhibition rate)	10	10	9 (Level 9: above 90% growth inhibition rate)
